According to ChEMBL document CHEMBL1135294, “Synthesis of a molecular mimic of the Glc1Man9 oligoside as potential inhibitor of calnexin binding to DeltaF508 CFTR protein” (Bioorg Med Chem Lett, 2002):

Biological target: T1, Calnexin (Homo sapiens, UniProt P27824)
T1 sequence (P27824 whole entry): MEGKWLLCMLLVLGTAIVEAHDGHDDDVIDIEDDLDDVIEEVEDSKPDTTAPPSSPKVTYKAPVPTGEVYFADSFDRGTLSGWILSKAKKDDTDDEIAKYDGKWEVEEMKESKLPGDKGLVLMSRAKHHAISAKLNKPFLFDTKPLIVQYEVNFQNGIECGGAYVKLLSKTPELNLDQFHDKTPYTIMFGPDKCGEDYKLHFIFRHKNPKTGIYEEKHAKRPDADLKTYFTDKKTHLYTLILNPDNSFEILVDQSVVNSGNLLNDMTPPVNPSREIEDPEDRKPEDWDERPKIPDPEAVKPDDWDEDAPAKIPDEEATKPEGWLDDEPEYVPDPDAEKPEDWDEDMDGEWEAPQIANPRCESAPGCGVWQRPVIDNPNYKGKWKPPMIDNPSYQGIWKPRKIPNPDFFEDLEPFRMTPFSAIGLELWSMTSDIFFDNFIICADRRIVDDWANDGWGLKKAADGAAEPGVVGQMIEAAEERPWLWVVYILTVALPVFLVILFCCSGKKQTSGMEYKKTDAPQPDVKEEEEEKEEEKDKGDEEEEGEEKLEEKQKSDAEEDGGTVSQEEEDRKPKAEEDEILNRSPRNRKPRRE
Experiment: Compound was tested for its ability to inhibit binding of [3H]- Glc1Man9 GlcNAc2 to GST-fused calnexin immobilized on glutathione-agarose

IC50: 300 µM
SMILES: O=C(NCC(CNC(=O)OCCNC(=O)O[C@H]1O[C@@H](CO)[C@@H](O)[C@H](O)[C@H]1O)OC(=O)NC(O)NC(=O)OCCOCCNC(=O)O[C@H]1C[C@@H](CO)[C@@H](O)[C@H](O[C@H]2O[C@@H](CO)[C@@H](O)[C@H](O)[C@@H]2O)[C@H]1O)OCCNC(=O)O[C@H]1O[C@@H](CO)[C@@H](O)[C@H](O)[C@H]1O (stereo partly specified)
